Results on 28 molecules are retold here after paper PMC12668310, “High‐Throughput Synthesis and Screening of a Cyanimide Library Identifies Selective Inhibitors of ISG15‐Specific Protease mUSP18” (Angewandte Chemie (International Ed. in English), 2025).

This test addresses T1, mUSP18 (Mus musculus, UniProt Q9WTV6).
T1 construct: (46-368); His-tag (N); made in house
T1 sequence (Q9WTV6 46-368): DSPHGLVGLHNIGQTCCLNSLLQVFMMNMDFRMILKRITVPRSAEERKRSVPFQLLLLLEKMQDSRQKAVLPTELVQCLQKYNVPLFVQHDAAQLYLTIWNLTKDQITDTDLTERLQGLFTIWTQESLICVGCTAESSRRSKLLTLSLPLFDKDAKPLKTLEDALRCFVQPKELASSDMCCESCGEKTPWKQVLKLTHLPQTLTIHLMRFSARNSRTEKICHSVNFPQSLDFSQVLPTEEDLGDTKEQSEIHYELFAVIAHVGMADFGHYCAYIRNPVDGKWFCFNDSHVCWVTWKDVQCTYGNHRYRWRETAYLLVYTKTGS
In words: High-throughput screening, ISG15ct-RhoMP, single dose 1.25 µM. Format: biochemical, murine. Conditions: mUSP18 %inhibition.

Setting [1] is: carboxylic acid (CA) building block alone, read-out: %inh CA only.
Setting [2] is: carboxylic acid (CA) with coupling reagents DIC/HOBT, read-out: %inh CA + DIC/HOBT.

Read-outs that look alike come from different tables or passages of the source.

In the case of `COc1ccc(OCc2cc(C)on2)c(C(=O)O)c1` [CA200], the inhibition at 1.25 µM was found to be 0.4% under setting [1] and 3.72% under setting [2].

For `O=C(O)C1CC(=O)N(CCN2CCOCC2)C1` (centres unmarked) [CA201], the inhibition at 1.25 µM was found to be 1.58% under setting [1] and 1.88% under setting [2].

Turning to `O=C(O)Cc1cccc(OCc2cccnc2)c1` [CA202], the inhibition at 1.25 µM is, setting by setting: under setting [1], 0.44%; under setting [2], 3.16%.

For `CN(Cc1cccnc1)S(=O)(=O)c1cc(C(=O)O)n(C)c1` [CA203], the inhibition at 1.25 µM is, setting by setting: under setting [1], 0.22%; under setting [2], 4.09%.

With `Cc1n[nH]c(C)c1S(=O)(=O)N1CCC(C(=O)O)CC1` [CA204], the inhibition at 1.25 µM is, setting by setting: under setting [1], -0.12%; under setting [2], 3.04%.

Consider `Cc1ccc(-c2cc(C(=O)O)[nH]n2)o1` [CA205], for which the inhibition at 1.25 µM is, setting by setting: under setting [1], 0.0344%; under setting [2], 4.51%.

Regarding `O=C(O)c1occc1CN1CCOCC1` [CA206], the inhibition at 1.25 µM is 1.55% under setting [1] and 4.49% under setting [2].

In the case of `O=C(O)c1ccc(COc2ccccc2Br)cc1` [CA207], the inhibition at 1.25 µM under setting [1] was -2.79% and the inhibition at 1.25 µM under setting [2] was 10.7%.

Take `O=C(O)c1cccc(-c2cnco2)c1` [CA208]: the inhibition at 1.25 µM is, setting by setting: under setting [1], 3.78%; under setting [2], 11.1%.

As for `O=C1CCC(=O)N(c2ccc(C(=O)O)cc2)N1` [CA209], the inhibition at 1.25 µM was -2.74% under setting [1] and 14.4% under setting [2].

For the molecule `O=C(O)c1coc(-c2cccnc2)n1` [CA210], the inhibition at 1.25 µM under setting [1] was 21% and the inhibition at 1.25 µM under setting [2] is 4.16%.

As to `O=C(O)c1ccc(=O)n(Cc2ccccc2)n1` [CA211], the inhibition at 1.25 µM is, setting by setting: under setting [1], 14.5%; under setting [2], 0.49%.

As for `Cc1nc(-c2cccnc2)sc1C(=O)O` [CA212], the inhibition at 1.25 µM by setting is: under setting [1], 10.5%; under setting [2], 0.87%.

Consider `CN1CCN(C(=O)c2ccccc2C(=O)O)CC1` [CA213], for which the inhibition at 1.25 µM is, setting by setting: under setting [1], 9.22%; under setting [2], -1.04%.

Take `Cc1cc(C(=O)O)c(C)n1-c1ccon1` [CA214]: the inhibition at 1.25 µM under setting [1] came out at 6.76% and the inhibition at 1.25 µM under setting [2] worked out at 33.1%.

`O=C(O)c1cccc(-c2ncn[nH]2)c1` [CA215]: the inhibition at 1.25 µM was 8.13% under setting [1] and 1.55% under setting [2].

For `O=C(O)c1ccnn1C1CCOCC1` [CA216], the inhibition at 1.25 µM reads like this: under setting [1], 6.01%; under setting [2], 2.43%.

Regarding `COc1ccc(C(=O)O)cc1S(=O)(=O)N1CCCCCC1` [CA217], the inhibition at 1.25 µM was 6.36% under setting [1] and 0.58% under setting [2].

For the molecule `Cn1nc(C(=O)N2CCOCC2)cc1C(=O)O` [CA218], the inhibition at 1.25 µM turned out to be 7.94% under setting [1] and 0.97% under setting [2].

Take `Cc1nn(C2CCOCC2)c(C)c1C(=O)O` [CA219]: the inhibition at 1.25 µM under setting [1] was determined as 7.18% and the inhibition at 1.25 µM under setting [2] is -0.2%.

`O=C(O)C1CCOC2(CCC2)C1` (centres unmarked) [CA220]: the inhibition at 1.25 µM by setting is: under setting [1], 7.46%; under setting [2], -0.86%.

For the molecule `O=C(O)c1cnn(CCN2CCCC2)c1` [CA221], the inhibition at 1.25 µM was found to be 5.71% under setting [1] and 3.5% under setting [2].

Regarding `O=C(O)C1(c2cccs2)CC1` [CA222], the inhibition at 1.25 µM amounted to 3.38% under setting [1] and 3.8% under setting [2].

Take `O=C(O)c1cc(-c2ccco2)on1` [CA223]: the inhibition at 1.25 µM is, setting by setting: under setting [1], 2.35%; under setting [2], 4.1%.

Turning to `O=C(O)c1ccc(Cn2cc(Br)cn2)o1` [CA224], the inhibition at 1.25 µM by setting is: under setting [1], 3.05%; under setting [2], 5.82%.

Take `O=C(O)C(c1ccccc1)n1cnnn1` (centres unmarked) [CA225]: the inhibition at 1.25 µM was -0.48% under setting [1] and -0.48% under setting [2].

Take `Cc1csc(N2CCCC(C(=O)O)C2)n1` (centres unmarked) [CA226]: the inhibition at 1.25 µM under setting [1] came out at 2.29% and the inhibition at 1.25 µM under setting [2] was found to be 3.37%.

For the molecule `CC(C(=O)O)n1nc(C(F)(F)F)cc1C1CC1` (centres unmarked) [CA227], the inhibition at 1.25 µM is, setting by setting: under setting [1], 2.61%; under setting [2], 2.83%.
